Measurements published in PubChem BioAssay (NCI).
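Cultured in 96-well plates, cells were exposed to test compound for 48 hours across five concentrations. TGI: total growth inhibition.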

Experiments:
Experiment in all cases: inhibition of tumour cell growth, NCI panel, 48 h
786-0 renal = tested on: 786-0 renal
A498 renal = tested on: A498 renal
A549 NSCLC = tested on: A549 NSCLC
ACHN renal = tested on: ACHN renal
CAKI-1 renal = tested on: CAKI-1 renal
CCRF-CEM leukemia = tested on: CCRF-CEM leukemia
COLO 205 colon = tested on: COLO 205 colon
DLD-1 colon = tested on: DLD-1 colon
DMS 114 small cell lung = tested on: DMS 114 small cell lung
DMS 273 small cell lung = tested on: DMS 273 small cell lung
EKVX NSCLC = tested on: EKVX NSCLC
HCC-2998 colon = tested on: HCC-2998 colon
HCT-116 colon = tested on: HCT-116 colon
HCT-15 colon = tested on: HCT-15 colon
HL-60(TB) leukemia = tested on: HL-60(TB) leukemia
HOP-18 NSCLC = tested on: HOP-18 NSCLC
HOP-62 NSCLC = tested on: HOP-62 NSCLC
HOP-92 NSCLC = tested on: HOP-92 NSCLC
HT29 colon = tested on: HT29 colon
IGROV1 ovarian = tested on: IGROV1 ovarian
K-562 leukemia = tested on: K-562 leukemia
KM12 colon = tested on: KM12 colon
KM20L2 colon = tested on: KM20L2 colon
LOX IMVI melanoma = tested on: LOX IMVI melanoma
LXFL 529 NSCLC = tested on: LXFL 529 NSCLC
M14 melanoma = tested on: M14 melanoma
MALME-3M melanoma = tested on: MALME-3M melanoma
MOLT-4 leukemia = tested on: MOLT-4 leukemia
NCI-H226 lung = tested on: NCI-H226 lung
NCI-H23 lung = tested on: NCI-H23 lung
NCI-H460 lung = tested on: NCI-H460 lung
NCI-H522 lung = tested on: NCI-H522 lung
OVCAR-3 ovarian = tested on: OVCAR-3 ovarian
OVCAR-4 ovarian = tested on: OVCAR-4 ovarian
OVCAR-5 ovarian = tested on: OVCAR-5 ovarian
OVCAR-8 ovarian = tested on: OVCAR-8 ovarian
RPMI-8226 leukemia = tested on: RPMI-8226 leukemia
RXF 393 renal = tested on: RXF 393 renal
RXF-631 renal = tested on: RXF-631 renal
SF-268 CNS = tested on: SF-268 CNS
SF-295 CNS = tested on: SF-295 CNS
SF-539 CNS = tested on: SF-539 CNS
SK-MEL-2 melanoma = tested on: SK-MEL-2 melanoma
SK-MEL-28 melanoma = tested on: SK-MEL-28 melanoma
SK-MEL-5 melanoma = tested on: SK-MEL-5 melanoma
SK-OV-3 ovarian = tested on: SK-OV-3 ovarian
SN12C renal = tested on: SN12C renal
SNB-19 CNS = tested on: SNB-19 CNS
SNB-75 CNS = tested on: SNB-75 CNS
SNB-78 CNS = tested on: SNB-78 CNS
SW-620 colon = tested on: SW-620 colon
TK-10 renal = tested on: TK-10 renal
U251 CNS = tested on: U251 CNS
UACC-257 melanoma = tested on: UACC-257 melanoma
UACC-62 melanoma = tested on: UACC-62 melanoma
UO-31 renal = tested on: UO-31 renal
M19-MEL melanoma = tested on: M19-MEL melanoma
SR leukemia = tested on: SR leukemia
XF 498 CNS = tested on: XF 498 CNS

Structure (SMILES): CC(N)C(=O)c1ccc(O)cc1 (stereo not given)
- TGI (786-0 renal): > 100 µM
- TGI (A498 renal): > 100 µM
- TGI (A549 NSCLC): > 100 µM
- TGI (ACHN renal): > 100 µM
- TGI (CAKI-1 renal): > 100 µM
- TGI (CCRF-CEM leukemia): > 100 µM
- TGI (COLO 205 colon): > 100 µM
- TGI (DLD-1 colon): > 100 µM
- TGI (DMS 114 small cell lung): > 100 µM
- TGI (DMS 273 small cell lung): > 100 µM
- TGI (EKVX NSCLC): > 100 µM
- TGI (HCC-2998 colon): > 100 µM
- TGI (HCT-116 colon): > 100 µM
- TGI (HCT-15 colon): > 100 µM
- TGI (HL-60(TB) leukemia): > 100 µM
- TGI (HOP-18 NSCLC): > 100 µM
- TGI (HOP-62 NSCLC): > 100 µM
- TGI (HOP-92 NSCLC): > 100 µM
- TGI (HT29 colon): > 100 µM
- TGI (IGROV1 ovarian): > 100 µM
- TGI (K-562 leukemia): > 100 µM
- TGI (KM12 colon): > 100 µM
- TGI (KM20L2 colon): > 100 µM
- TGI (LOX IMVI melanoma): > 100 µM
- TGI (LXFL 529 NSCLC): > 100 µM
- TGI (M14 melanoma): > 100 µM
- TGI (MALME-3M melanoma): > 100 µM
- TGI (MOLT-4 leukemia): > 100 µM
- TGI (NCI-H226 lung): > 100 µM
- TGI (NCI-H23 lung): > 100 µM
- TGI (NCI-H460 lung): > 100 µM
- TGI (NCI-H522 lung): > 100 µM
- TGI (OVCAR-3 ovarian): > 100 µM
- TGI (OVCAR-4 ovarian): > 100 µM
- TGI (OVCAR-5 ovarian): > 100 µM
- TGI (OVCAR-8 ovarian): > 100 µM
- TGI (RPMI-8226 leukemia): > 100 µM
- TGI (RXF 393 renal): > 100 µM
- TGI (RXF-631 renal): > 100 µM
- TGI (SF-268 CNS): > 100 µM
- TGI (SF-295 CNS): > 100 µM
- TGI (SF-539 CNS): > 100 µM
- TGI (SK-MEL-2 melanoma): > 100 µM
- TGI (SK-MEL-28 melanoma): > 100 µM
- TGI (SK-MEL-5 melanoma): > 100 µM
- TGI (SK-OV-3 ovarian): > 100 µM
- TGI (SN12C renal): > 100 µM
- TGI (SNB-19 CNS): > 100 µM
- TGI (SNB-75 CNS): > 100 µM
- TGI (SNB-78 CNS): > 100 µM
- TGI (SW-620 colon): > 100 µM
- TGI (TK-10 renal): > 100 µM
- TGI (U251 CNS): > 100 µM
- TGI (UACC-257 melanoma): > 100 µM
- TGI (UACC-62 melanoma): > 100 µM
- TGI (UO-31 renal): > 100 µM

Structure (SMILES): COc1ccc2nc3cc(Cl)ccc3c(NCCC(=O)OCC(O)C(O)C(O[C@H](C)C(=O)NC(C)C(=O)NC(CCC(N)=O)C(=O)OCc3ccccc3)C(C=O)NC(C)=O)c2c1 (stereo not given in full)
- TGI (786-0 renal): 31.9 µM
- TGI (A498 renal): 37.7 µM
- TGI (A549 NSCLC): 32.4 µM
- TGI (ACHN renal): 32.2 µM
- TGI (CAKI-1 renal): 40.9 µM
- TGI (CCRF-CEM leukemia): > 100 µM
- TGI (COLO 205 colon): 32.6 µM
- TGI (DLD-1 colon): 33.6 µM
- TGI (DMS 273 small cell lung): 27.6 µM
- TGI (EKVX NSCLC): 36.9 µM
- TGI (HCC-2998 colon): 33.6 µM
- TGI (HCT-116 colon): 31.9 µM
- TGI (HCT-15 colon): 52.4 µM
- TGI (HL-60(TB) leukemia): 56.3 µM
- TGI (HOP-62 NSCLC): 33.9 µM
- TGI (HOP-92 NSCLC): 31.9 µM
- TGI (HT29 colon): 41.3 µM
- TGI (IGROV1 ovarian): 30.2 µM
- TGI (K-562 leukemia): 68 µM
- TGI (KM12 colon): 41.7 µM
- TGI (KM20L2 colon): 32.7 µM
- TGI (LXFL 529 NSCLC): 31.2 µM
- TGI (M14 melanoma): 35.5 µM
- TGI (M19-MEL melanoma): 34.4 µM
- TGI (MALME-3M melanoma): > 100 µM
- TGI (MOLT-4 leukemia): 44.2 µM
- TGI (NCI-H226 lung): 37.8 µM
- TGI (NCI-H23 lung): 27.5 µM
- TGI (NCI-H460 lung): 30.4 µM
- TGI (NCI-H522 lung): 28 µM
- TGI (OVCAR-3 ovarian): 34.7 µM
- TGI (OVCAR-4 ovarian): 34.3 µM
- TGI (OVCAR-5 ovarian): 47 µM
- TGI (OVCAR-8 ovarian): 30.5 µM
- TGI (RXF-631 renal): 36.9 µM
- TGI (SF-268 CNS): 32.8 µM
- TGI (SF-295 CNS): 34.3 µM
- TGI (SF-539 CNS): 37.1 µM
- TGI (SK-MEL-2 melanoma): 41.8 µM
- TGI (SK-MEL-28 melanoma): 32.1 µM
- TGI (SK-MEL-5 melanoma): 30.2 µM
- TGI (SK-OV-3 ovarian): 33 µM
- TGI (SN12C renal): 31.4 µM
- TGI (SNB-19 CNS): 62.1 µM
- TGI (SNB-75 CNS): 31.7 µM
- TGI (SNB-78 CNS): 80.8 µM
- TGI (SR leukemia): 23.6 µM
- TGI (SW-620 colon): 30.9 µM
- TGI (TK-10 renal): 46.2 µM
- TGI (U251 CNS): 35.7 µM
- TGI (UACC-257 melanoma): > 100 µM
- TGI (UACC-62 melanoma): 34 µM
- TGI (UO-31 renal): 34.7 µM
- TGI (XF 498 CNS): 33.5 µM
